Measured values taken from PMC11201714, “Insights into the Effects of Ligand Binding on Leucyl-tRNA Synthetase Inhibitors for Tuberculosis: In Silico Analysis and Isothermal Titration Calorimetry Validation” (Biomolecules, 2024).
Values after ≈ are worked out from the molar mass of the structure shown.

Legend:
[1] = molecular target: T1, leucyl t-RNA synthetase (LeuRS) (Mycobacterium tuberculosis, UniProt P9WFV1); assay: biochemical; type: binding; settings: for Binding Enthalpy ΔH / Kd: ITC; for Kd: pH 7.0, read-out: Floating Association Constant ka (converted)
T1 construct: purchased Sigma-Aldrich
T1 sequence (P9WFV1 whole entry): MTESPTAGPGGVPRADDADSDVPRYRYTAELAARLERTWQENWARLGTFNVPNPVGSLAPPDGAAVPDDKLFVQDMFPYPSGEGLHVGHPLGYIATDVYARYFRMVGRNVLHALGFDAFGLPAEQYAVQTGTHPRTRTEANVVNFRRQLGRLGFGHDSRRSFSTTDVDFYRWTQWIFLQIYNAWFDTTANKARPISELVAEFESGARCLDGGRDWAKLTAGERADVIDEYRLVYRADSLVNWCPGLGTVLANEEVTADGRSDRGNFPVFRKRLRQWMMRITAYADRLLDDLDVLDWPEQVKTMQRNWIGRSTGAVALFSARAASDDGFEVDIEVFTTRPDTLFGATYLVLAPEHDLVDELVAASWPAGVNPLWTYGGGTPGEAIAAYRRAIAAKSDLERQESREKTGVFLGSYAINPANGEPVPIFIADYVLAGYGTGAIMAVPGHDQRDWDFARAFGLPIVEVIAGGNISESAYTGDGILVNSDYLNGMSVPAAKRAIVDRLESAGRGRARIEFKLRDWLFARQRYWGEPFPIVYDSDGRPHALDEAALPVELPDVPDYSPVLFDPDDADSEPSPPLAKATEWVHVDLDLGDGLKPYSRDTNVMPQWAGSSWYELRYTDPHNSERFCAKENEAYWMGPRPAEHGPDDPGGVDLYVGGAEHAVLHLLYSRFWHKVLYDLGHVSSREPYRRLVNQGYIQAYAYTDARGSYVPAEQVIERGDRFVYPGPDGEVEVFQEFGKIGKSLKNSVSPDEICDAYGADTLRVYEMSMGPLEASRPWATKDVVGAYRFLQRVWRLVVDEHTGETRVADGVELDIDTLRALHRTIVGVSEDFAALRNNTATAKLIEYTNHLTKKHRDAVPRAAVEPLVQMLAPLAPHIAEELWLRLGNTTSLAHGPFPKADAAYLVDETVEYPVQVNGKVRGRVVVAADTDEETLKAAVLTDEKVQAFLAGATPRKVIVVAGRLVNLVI

[2] = test system: Mycobacterium tuberculosis strain H37Rv (ATCC 25618); assay: Antimycobacterial activity, well diffusion method; type: cell-based; settings: LJM agar, 6 weeks; for MIC: Mycobacterium tuberculosis
[3] = test system: Wild-type Mycobacterium tuberculosis biofilm; assay: Inhibition of mycobacterial biofilm formation (crystal violet)
[4] = test system: Leucyl-tRNA synthetase mRNA; assay: Leucyl t-RNA synthetase gene expression inhibition (qPCR); type: cell-based; settings: A549 cells, 25 µL (10 mM) overnight, RT-PCR, in words
[5] = Conc. of Ligand/Protein 0.0125 µM
[6] = Conc. of Ligand/Protein 0.025 µM
[7] = Conc. of Ligand/Protein 0.050 µM
[8] = Conc. of Ligand/Protein 0.100 µM
[9] = Conc. of Ligand/Protein 0.200 µM
[10] = Conc. of Ligand/Protein 0.400 µM
[11] = Conc. of Ligand/Protein 0.800 µM
[12] = Conc. of Ligand/Protein 1.600 µM
[13] = Conc. of Ligand/Protein 3.20 µM
[14] = Conc. of Ligand/Protein 5.00 µM

SMILES | ΔH for Ligands ([1]; Conc. of Ligand/Protein 00 µM) | ΔH for Ligands [1, 5] | ΔH for Ligands [1, 6] | ΔH for Ligands [1, 7] | ΔH for Ligands [1, 8] | ΔH for Ligands [1, 9] | ΔH for Ligands [1, 10] | ΔH for Ligands [1, 11] | ΔH for Ligands [1, 12] | ΔH for Ligands [1, 13] | ΔH for Ligands [1, 14] | Binding Enthalpy ΔH ([1]; 25 °C, pH 7.0, fitted) | Kd ([1]; 25 °C) | Zone of Inhibition [2] | MIC [2] | OD (biofilm formation) ([3]; Conc. 5.0 (unit not given)) | OD (biofilm formation) ([3]; Conc. 10.0 (unit not given)) | OD (biofilm formation) ([3]; Conc. 15.0 (unit not given)) | OD (biofilm formation) ([3]; Conc. 20.0 (unit not given)) | OD (biofilm formation) ([3]; Conc. 25.0 (unit not given)) | also measured
CC(C)C(N)C(=O)OCC(CO)OCn1cnc2c(=O)[nH]c(N)nc21 (stereo not drawn) [Compound 1035, 2-((2-amino-6-oxo-1H-purin-9(6H)-yl)methoxy)-3-hydroxypropyl 2-amino-3-methylbutanoate] | -86.84 kJ/mol | -81.65 kJ/mol | -75.56 kJ/mol | -63.41 kJ/mol | -57.85 kJ/mol | -43.88 kJ/mol | -34.16 kJ/mol | -23.10 kJ/mol | -16.25 kJ/mol | -12.65 kJ/mol | 00 kJ/mol | -49.16 kJ/mol | 23.9 µM | 13.68 ± 0.21 mm | 119.87 ± 0.1 µg/mL (≈ 338 µM) | 0.7685 | 0.6255 | 0.5454 | 0.3256 | 0.1854 | 
OB1OCc2cc(F)ccc21 [AN2690] |  |  |  |  |  |  |  |  |  |  |  |  |  |  |  | 0.4256 | 0.3658 | 0.2452 | 0.2048 | 0.0980 | LeuRS gene expression (copies of mRNA per cycle) [4]: lower copies of LeuRS
NCC[C@H](O)C(=O)N[C@@H]1C[C@H](N)[C@@H](O[C@H]2O[C@H](CN)[C@@H](O)[C@H](O)[C@H]2O)[C@H](O)[C@H]1O[C@H]1O[C@H](CO)[C@@H](O)[C@H](N)[C@H]1O [Compound 2077, (S)-4-amino-N-((1R,2S,3S,4R,5S)-5-amino-2-(((2S,3R,4S,5S,6R)-4-amino-3,5-dihydroxy-6-(hydroxymethyl)tetrahydro-2H-pyran-2-yl)oxy)-4-(((2R,3R,4S,5S,6R)-6-(aminomethyl)-3,4,5-trihydroxytetrahydro-2H-pyran-2-yl)oxy)-3-hydroxycyclohexyl)-2-hydroxybutanamide] | -84.16 kJ/mol | -80.13 kJ/mol | -73.79 kJ/mol | -61.36 kJ/mol | -55.16 kJ/mol | -41.42 kJ/mol | -31.25 kJ/mol | -20.16 kJ/mol | -13.45 kJ/mol | -10.36 kJ/mol | 00 kJ/mol | -49.87 kJ/mol | 129 µM | 15.57 ± 0.80 mm | 147.4 ± 0.8 µg/mL (≈ 252 µM) | 0.7588 | 0.5358 | 0.3585 | 0.2544 | 0.1456 | 
CC(C)(N)C(=O)N[C@H](Cc1c[nH]c2ccccc12)C(=O)N[C@H](Cc1c[nH]c2ccccc12)NC=O [Compound 1054, 2-amino-N-((R)-1-(((R)-1-formamido-2-(1H-indol-3-yl)ethyl)amino)-3-(1H-indol-3-yl)-1-oxopropan-2-yl)-2-methylpropanamide] | -82.11 kJ/mol | -76.15 kJ/mol | -68.25 kJ/mol | -60.11 kJ/mol | -52.27 kJ/mol | -41.25 kJ/mol | -29.73 kJ/mol | -20.46 kJ/mol | -13.16 kJ/mol | -10.42 kJ/mol | 00 kJ/mol | -48.23 kJ/mol | 0.158 µM | 18.45 ± 0.19 mm | 186.4 ± 0.21 µg/mL (≈ 393 µM) | 0.5428 | 0.4548 | 0.3425 | 0.2186 | 0.1254 | Binding Enthalpy ΔH [1]: -48.23 kL/mol; LeuRS gene expression (copies of mRNA per cycle) [4]: more effective in down-regulating the LeuRS gene; biofilm formation inhibitory activity ([3]; in words, compared to control / other compounds): higher inhibition in biofilm formation
